Values of other authors in patent US11642371B2, “Encapsulated antimicrobials and related methods of treatment” (ADVANTAGE SILVER DENTAL ARREST, LLC, priority 2018, dated 2023).

Test system: dentinal caries lesions
Conditions: lesions that had progressed into the dentin

For Silver diamine fluoride [SDF], which “dentinal caries lesions found to be arrested after treatment” value is on record?
The value was “two-thirds”.
